Test systems include SK-MEL-5; NCI/ADR-RES; SN12C; COLO 205; OVCAR-4; TK-10; LOX IMVI; EKVX; PC-3; K562; DU-145; M14; NCI-H522; RPMI-8226; SK-MEL-2; IGROV-1; Malme-3M; SF-295; A498; MDA-N.
What all share (experiment): DTP human tumour cell line panel, 48 h

The values that follow come from ChEMBL document CHEMBL1201862, “PubChem BioAssay data set” (2004).

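Assay format: 96-well plates, 48-hour exposure. GI50 marks 50% less growth.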 Activity calls are given as the source filed them. Rule as the data show it: active = GI50 up to about 1.1 µM and inactive = higher. Some results are limits rather than exact numbers.

For the compound `O=C1CSC(c2ccccc2O)N1c1ccc(Oc2ccc(Cl)cc2)c(Cl)c1` (stereo unspecified), the GI50 in the experiment on SK-MEL-5 is 17.2 µM (inactive); with NCI/ADR-RES it was 20.6 µM (inactive); in the experiment on SN12C, 22.1 µM (inactive); in the experiment on COLO 205 it was 18.5 µM (inactive); in the experiment with OVCAR-4, 20.7 µM (inactive); with TK-10, 36.1 µM (inactive). The GI50 with LOX IMVI was 16.6 µM (inactive); in the experiment on EKVX, 16.8 µM (inactive); in the experiment on PC-3 it was 22.3 µM (inactive); in the experiment on K562, 29.9 µM (inactive); in the experiment with DU-145, 21.1 µM (inactive); in the experiment on M14 it was 29.8 µM (inactive). Moreover, the GI50 in the experiment with NCI-H522 is 15.3 µM (inactive); in the experiment on RPMI-8226 it was 19.8 µM (inactive); in the experiment on SK-MEL-2 it was 24.3 µM (inactive); in the experiment on IGROV-1, 8.91 µM (inactive); with Malme-3M, 11.9 µM (inactive); with SF-295, 16.3 µM (inactive).
`N=C(N)N/N=C/c1c(-c2ccc(Cl)c(Cl)c2Cl)nc2sccn12`: the GI50 with SK-MEL-5 is 1.74 µM (inactive); in the experiment with SN12C it was 1.5 µM (inactive); with COLO 205, 1.42 µM (inactive); in the experiment on OVCAR-4 it was 2.1 µM (inactive); in the experiment on TK-10 it was 1.4 µM (inactive); in the experiment on LOX IMVI, 1.64 µM (inactive). Moreover, the GI50 in the experiment on EKVX is 1.5 µM (inactive); in the experiment on A498 it was 1.1 µM (active); in the experiment with PC-3, 2.72 µM (inactive); in the experiment with DU-145 it was 1.7 µM (inactive); with M14, 1.57 µM (inactive); in the experiment on NCI-H522 it was 1.23 µM (inactive). Besides, the GI50 was 1.74 µM (inactive) in the experiment with SK-MEL-2, 1.59 µM (inactive) with MDA-N, 1.27 µM (inactive) in the experiment on IGROV-1 and 1.79 µM (inactive) in the experiment on SF-295.
In the case of `COc1ccccc1NC(=O)C1=C(C)NC(C)=C(C(=O)Nc2ccccc2OC)C1c1ccco1`, the GI50 in the experiment with SK-MEL-5 was 3.02 µM (inactive); in the experiment with SN12C, 13.4 µM (inactive); in the experiment on COLO 205, 5.56 µM (inactive); with OVCAR-4, 8.57 µM (inactive); in the experiment on TK-10, 19.5 µM (inactive); in the experiment with LOX IMVI, 8.07 µM (inactive). The GI50 was 10.9 µM (inactive) in the experiment on EKVX; 4.3 µM (inactive) with A498; 3.47 µM (inactive) in the experiment with PC-3; 5.19 µM (inactive) in the experiment with K562; 21.4 µM (inactive) in the experiment on DU-145; 4.71 µM (inactive) with M14. Moreover, the GI50 is 2.66 µM (inactive) with NCI-H522; 4.52 µM (inactive) in the experiment with RPMI-8226; 3.64 µM (inactive) in the experiment with SK-MEL-2; 2.74 µM (inactive) in the experiment with MDA-N; 9.14 µM (inactive) in the experiment on IGROV-1; 4.2 µM (inactive) in the experiment on Malme-3M. For the same compound, the GI50 in the experiment on SF-295 is 4.31 µM (inactive).
As to `O=C(CC(C(=O)c1ccsc1)c1cccs1)c1ccccc1` (stereo unspecified), the GI50 with SK-MEL-5 is 70.5 µM (inactive); with SN12C, > 100 µM (inactive); in the experiment on COLO 205, > 100 µM (inactive); in the experiment on OVCAR-4, 18.3 µM (inactive); in the experiment on TK-10, > 100 µM (inactive); in the experiment on LOX IMVI, 78 µM (inactive). For the same compound, the GI50 is > 100 µM (inactive) with EKVX; 29.9 µM (inactive) with A498; > 100 µM (inactive) with K562; 54.6 µM (inactive) in the experiment with DU-145; 69.2 µM (inactive) with M14; 70.1 µM (inactive) with NCI-H522. Further, the GI50 is > 100 µM (inactive) in the experiment on RPMI-8226, > 100 µM (inactive) in the experiment with MDA-N, > 100 µM (inactive) with IGROV-1 and 98.9 µM (inactive) in the experiment on SF-295.
`N#Cc1sc2c(c1OC(=O)c1ccc(Cl)cc1Cl)c(=O)n(-c1ccccc1)c(=S)n2-c1ccccc1`: the GI50 with SK-MEL-5 was 16.6 µM (inactive); in the experiment with NCI/ADR-RES it was 16.8 µM (inactive); in the experiment with SN12C, 21.8 µM (inactive); in the experiment with COLO 205, 19.7 µM (inactive); with OVCAR-4 it was 21.5 µM (inactive); in the experiment on TK-10 it was 33.6 µM (inactive). The GI50 was 19.2 µM (inactive) in the experiment with LOX IMVI; 31.8 µM (inactive) in the experiment on EKVX; 24.9 µM (inactive) in the experiment on A498; 25.4 µM (inactive) with PC-3; 17.1 µM (inactive) in the experiment with K562; 36.1 µM (inactive) with DU-145. In addition, the GI50 in the experiment on M14 was 18.2 µM (inactive); in the experiment on NCI-H522 it was 1.12 µM (active); in the experiment on RPMI-8226 it was 31.7 µM (inactive); in the experiment on IGROV-1 it was 17 µM (inactive); in the experiment on SF-295 it was 28.2 µM (inactive).
Regarding `COc1ccccc1NC(=S)N/N=C/c1c(C)n(C)n(-c2ccccc2)c1=O`, the GI50 in the experiment with SK-MEL-5 is > 100 µM (inactive); in the experiment with NCI/ADR-RES it was 21.1 µM (inactive); in the experiment on COLO 205, > 100 µM (inactive); in the experiment with OVCAR-4, > 100 µM (inactive); in the experiment with TK-10 it was > 100 µM (inactive); with LOX IMVI, 49.8 µM (inactive). The GI50 is > 100 µM (inactive) in the experiment on EKVX; 71 µM (inactive) in the experiment with A498; > 100 µM (inactive) with PC-3; > 100 µM (inactive) in the experiment on K562; 40.8 µM (inactive) in the experiment with DU-145; 61.8 µM (inactive) in the experiment on M14. For the same compound, the GI50 was > 100 µM (inactive) with RPMI-8226, > 100 µM (inactive) in the experiment on SK-MEL-2, > 100 µM (inactive) in the experiment on IGROV-1 and 59.3 µM (inactive) in the experiment with SF-295.
On to `Cc1ccnc(NC(=S)Nc2ccc([N+](=O)[O-])cc2)c1`, for which the GI50 in the experiment with SK-MEL-5 is > 100 µM (inactive); in the experiment with NCI/ADR-RES, 56.5 µM (inactive); with OVCAR-4 it was > 100 µM (inactive); with TK-10 it was > 100 µM (inactive); with LOX IMVI it was > 100 µM (inactive); with EKVX, > 100 µM (inactive). The GI50 was > 100 µM (inactive) with PC-3; > 100 µM (inactive) in the experiment with K562; 34.6 µM (inactive) with DU-145; > 100 µM (inactive) in the experiment on M14; > 100 µM (inactive) with RPMI-8226; > 100 µM (inactive) in the experiment on SK-MEL-2. Also, the GI50 was 46.2 µM (inactive) with IGROV-1 and 62.8 µM (inactive) in the experiment with SF-295.
For the compound `C/C(=N/NC(=O)c1ccncc1)c1ccc(NC(=O)C(=O)Nn2c(S)nc3ccccc3c2=O)cc1`, the GI50 in the experiment on SK-MEL-5, with NCI/ADR-RES, with SN12C, in the experiment on COLO 205, in the experiment with OVCAR-4 and in the experiment with TK-10 was > 100 µM (inactive) in each case. The GI50 was > 100 µM (inactive) in the experiment on LOX IMVI; 72.8 µM (inactive) with EKVX; > 100 µM (inactive) with A498; > 100 µM (inactive) in the experiment with PC-3; > 100 µM (inactive) with DU-145; > 100 µM (inactive) in the experiment on M14. Further, the GI50 with NCI-H522 is > 100 µM (inactive); with RPMI-8226, > 100 µM (inactive); with SK-MEL-2, > 100 µM (inactive); in the experiment with IGROV-1, 37.2 µM (inactive); with Malme-3M it was > 100 µM (inactive); in the experiment with SF-295 it was > 100 µM (inactive).
As to `COc1ccc(NC(=O)C2=C(SC)C(C#N)C(=O)N=C2N)cc1` (stereo unspecified), the GI50 in the experiment on SK-MEL-5 was > 100 µM (inactive); in the experiment on SN12C, > 100 µM (inactive); in the experiment on COLO 205, 55.7 µM (inactive); in the experiment on OVCAR-4 it was > 100 µM (inactive); with TK-10, > 100 µM (inactive); with LOX IMVI it was > 100 µM (inactive). Also, the GI50 in the experiment with EKVX was > 100 µM (inactive); in the experiment with A498 it was > 100 µM (inactive); with PC-3 it was > 100 µM (inactive); in the experiment on K562 it was 54.3 µM (inactive); in the experiment with DU-145 it was > 100 µM (inactive); in the experiment with M14, > 100 µM (inactive). Also, the GI50 is 15.1 µM (inactive) with NCI-H522; > 100 µM (inactive) in the experiment with RPMI-8226; > 100 µM (inactive) in the experiment with SK-MEL-2; > 100 µM (inactive) in the experiment on MDA-N; 20.3 µM (inactive) in the experiment on IGROV-1; 26.9 µM (inactive) with Malme-3M. In addition, the GI50 in the experiment with SF-295 is > 100 µM (inactive).
On to `Cc1cc(/C=C/c2cc[n+](C)c3ccccc23)c(O)c2ncccc12`, for which the GI50 in the experiment on SK-MEL-5 was 1.02 µM (active); in the experiment on SN12C, 1.09 µM (active); with COLO 205, 5.68 µM (inactive); in the experiment with OVCAR-4 it was 7.94 µM (inactive); with TK-10, 4.28 µM (inactive); in the experiment on LOX IMVI, 1.35 µM (inactive). Further, the GI50 is 3.28 µM (inactive) in the experiment on EKVX; 4.19 µM (inactive) in the experiment on A498; 2.46 µM (inactive) in the experiment on K562; 1.44 µM (inactive) in the experiment with M14; 1.77 µM (inactive) in the experiment on NCI-H522; 0.71 µM (active) in the experiment on RPMI-8226. Moreover, the GI50 was 2.67 µM (inactive) with SK-MEL-2, 1.93 µM (inactive) in the experiment with IGROV-1, 2.8 µM (inactive) with Malme-3M and 0.991 µM (active) in the experiment on SF-295.
On to `CCOC(=O)C1CCC(=O)N1C(=O)c1ccccc1` (stereo unspecified), for which the GI50 with SK-MEL-5 was > 100 µM (inactive); in the experiment on NCI/ADR-RES it was > 100 µM (inactive); in the experiment on SN12C, > 100 µM (inactive); in the experiment on TK-10, > 100 µM (inactive); in the experiment on LOX IMVI, 92.3 µM (inactive); with EKVX, > 100 µM (inactive). The GI50 with A498, in the experiment with PC-3, with K562, in the experiment on DU-145, with M14 and in the experiment with NCI-H522 was > 100 µM (inactive) in each case. Besides, the GI50 in the experiment with RPMI-8226, in the experiment on IGROV-1, with Malme-3M and with SF-295 was > 100 µM (inactive) throughout.
Regarding `C/C(=N/NC(=O)C(N)=O)C(CC(C(=O)Nc1ccccc1C)/C(C)=N\NC(=O)C(N)=O)C(=O)Nc1ccccc1C` (stereo unspecified), the GI50 with SK-MEL-5, in the experiment on SN12C, with COLO 205, in the experiment on OVCAR-4, with TK-10 and in the experiment with LOX IMVI was > 100 µM (inactive) in each case. The GI50 is > 100 µM (inactive) in the experiment with EKVX; > 100 µM (inactive) in the experiment with A498; > 100 µM (inactive) with K562; > 100 µM (inactive) with M14; 66.4 µM (inactive) in the experiment with NCI-H522; > 100 µM (inactive) in the experiment with RPMI-8226. Also, the GI50 with SK-MEL-2, with IGROV-1, in the experiment with Malme-3M and in the experiment with SF-295 was > 100 µM (inactive) in each case.
